Drawing on a melting point compilation (Tetko et al.; mined from patent text by program, amines drawn as free bases though some values may be those of a salt), this text covers melting point for 88 compounds.

As usually defined, the melting point is the temperature, or range, at which the solid turns liquid. As to `C[C@H](CNc1nc(Cl)nc2c1ncn2[C@@H]1O[C@H](CO)[C@@H](O)[C@H]1O)Oc1ccccc1`, the melting point lay in the range of 175 to 177 °C. For the compound `Cc1cccc(NC(c2cccc(O)c2)c2ccc3cccnc3c2O)n1` (stereo not drawn), the melting point was 187 to 189 °C. Then `CSc1ccccc1CNc1ncnc2c1sc1nc(N3CCCC3)c3c(c12)CC(C)(C)OC3`, with 176 to 177 °C.

`CC(NC(=O)OCc1ccccc1)C(=O)N1C(C(=O)O)CC2CCCCC21` (stereo not drawn) came in with a melting point of 58.6 °C. `CCCn1c(=O)c2c(NC)n(C(C)=O)nc2n(Cc2cccc(Cl)c2)c1=O` had a melting point of 169 to 171 °C. As to `COCn1c(Cl)c(Cl)c(C#N)c1Cl`, the melting point is 48 to 49 °C.

The compound `O=S(=O)(c1ccc(Oc2ccc(Cl)c(Cl)c2)cc1)C(F)(F)F` yielded a melting point of 77 to 78 °C. Consider `CCN1CC(OCC2CC2)(C(F)(F)F)c2cc(F)ccc2NC1=O` (stereo not drawn), for which the melting point is 156 °C. Consider `CC1C[C@H]2[C@@H]3CCC4=CC(=O)CC[C@]4(CS)[C@H]3CC[C@]2(C)C1=O` (stereo partly drawn), for which the melting point was in the range of 130 to 132 °C. Then `Oc1ccc2c(c1CNc1ccccc1)CCCO2`, with 105 to 107 °C; and `COCCOc1ccc(CCCC(=O)O)c(Oc2ncc(C(F)(F)F)cc2Cl)c1`, with 119 to 120 °C; and `COc1ccc(N2CCN(c3c(C)c(C)c4c(c3-c3ccoc3)CC(C)(C)O4)CC2)cc1`, with 192 to 195 °C. Then `CCCCc1nc2c(n1Cc1ccc(-c3ccccc3S(N)(=O)=O)cc1)C(=O)C(F)CS2` (stereo not drawn), with 208 °C; and `CC[C@H](Cn1cnnc1)n1cnc2cc3c(=O)n([C@H](CC)Cn4ncnn4)cnc3cc2c1=O`, with 130 to 132 °C; and `O=c1[nH]c(=O)n(C2CC(O)C(COCc3ccccc3)O2)cc1F` (stereo not drawn), with 129 to 130 °C. `O=C1CC(O)CN1C(=O)Nc1ccccc1` (stereo not drawn) came in with a melting point of 104 °C.

For the compound `CCCC1(CCC)c2ccccc2-c2cc(NC(=O)c3cc4oc5ccccc5c4cc3OC)c(O)cc21`, the melting point fell in the range of 252 to 255 °C. In turn, `CCCCCCCCC(SCCCCCC)C(=O)Nc1c(SC)cc(SC)c2ncccc12` (stereo not drawn) showed a melting point of 91 to 93 °C.

Regarding `C[Si](C)(C)N=C(C(=N[Si](C)(C)C)c1ccccc1)c1ccccc1`, the melting point lay within 69 to 70 °C. On to `O=c1n(CC(O)c2ccccc2)c2c(Br)c(Br)c(Br)c(Br)c2n1CC(O)c1ccccc1` (stereo not drawn), for which the melting point was in the range of 121 to 123 °C. Compound `CCN(CC)C(=O)c1cc2ccccc2c(-c2ccccc2)n1` gave a melting point of 72 °C. As to `O=C1N(Cc2ccccn2)c2ccccc2C12COc1c(Cl)cc3c(c12)OCCO3` (stereo not drawn), the melting point fell in the range of 197 to 199 °C.

`CC(C)COC(=O)N[C@@H](CC(C)C)C(=O)N[C@@H](Cc1ccccc1)C(=O)CSCc1ccco1` came in with a melting point of 89 to 90 °C. `NCc1ccc(C(=O)NC2CCN(C3CCCCC3)C2)cc1` (stereo not drawn) had a melting point of 125 to 129 °C. For the compound `O=C(CCO)Nc1cccc(S)c1`, the melting point lay within 103 to 104 °C. Compound `O=C(NCC1(O)CCCCCC1)c1cc(-c2cccnc2C(=O)O)ccc1Cl` displayed a melting point of 95 to 100 °C.

Regarding `CSc1ccc(-c2cc3ncn([C@H](C)[C@](O)(Cn4cncn4)c4ccc(F)cc4F)c(=O)c3s2)cc1`, the melting point was in the range of 223 to 224 °C. In turn, `COc1ccc2c(c1)CCc1c-2cc(-c2ccccc2)n1-c1ccc(O)c(C(=O)O)c1` gave a melting point of 233 to 234 °C.

For the compound `Cc1nccn1CCN1CCC(Nc2nc3ccccc3n2Cc2ccc(F)cc2)CC1`, the melting point amounted to 170 °C. As for `Cn1c(=O)c2c(ncn2C(=O)CCC(=O)n2cnc3c2c(=O)n(C)c(=O)n3C)n(C)c1=O`, the figure is 266 °C.

With `O=C(O)Cc1c(C(=O)c2cccc(Cl)c2)[nH]c2ccc(Cl)cc12`, the melting point lay within 243 to 247 °C. As for `CCC(=O)c1cccc2cccc(O)c12`, the figure is 114 to 117 °C. In the case of `COC(=O)c1ccc(Cl)cc1NC(=O)CSc1nc2ccccc2s1`, the melting point was 117 to 120 °C.

In the case of `Cc1cccc(-c2nsc(=O)o2)c1`, the melting point lay in the range of 82.5 to 84 °C. `N#Cc1cc(OCCOCC2CC2)ccc1OCC(O)CNCCNC(=O)Nc1ccccc1` (stereo not drawn): the melting point lay within 110 to 113 °C.

Regarding `CC(C)(Cc1ccc(O)cc1)NCC(O)c1cc(OCc2ccccc2)cc2c1OCC(=O)N2` (stereo not drawn), the melting point lay within 255 to 258 °C. `COc1cc2oc(-c3ccc(F)cc3)c(Br)c2c(OC)c1Br` showed a melting point of 186 to 187 °C. Then `CC(=O)N1CCc2cc(C(=O)C(C)Br)ccc21` (stereo not drawn), with 140 to 142 °C; and `c1ccc(C(Nn2cncn2)c2ccccc2)cc1`, with 142 to 145 °C. Then `CCOC(=O)c1cnn(-c2c(Cl)cc(C(F)(F)F)cc2Cl)c1Br`, with 80 to 82 °C; and `Cc1ccc2c3c(c(=O)[nH]c2c1)C(=O)c1ccccc1-3`, with greater than 290 °C. As for `COc1cc2c(cc1OC)N(C)C(=O)CN=C2c1cccc(CO)c1`, the figure is 143 to 146 °C; as for `CNC(=O)n1sc(SC)nc1=O`, 144 °C.

In the case of `CNC(=NC#N)NCCSCc1nsc(NC(=N)N)n1`, the melting point lay in the range of 198 to 199 °C. `O=C(NC1CCCCC1)OC1c2nccnc2C(=O)N1c1ccc2ccc(Cl)nc2n1` (stereo not drawn) returned a melting point of 264 °C. As for `O=C1CCCc2nc3ccccc3c(NCc3cccc(F)c3)c21`, the melting point lay within 156 to 157 °C.

For `CCCc1c(OCCCCc2nc3ccc(C(=O)O)cc3[nH]2)ccc(C(C)=O)c1O`, the melting point was 98 to 100 °C. Regarding `O=S(=O)(Nc1cc(Cl)c(Oc2nc3ccc(Cl)cc3s2)c(Cl)c1)c1ccc(C(F)(F)F)cc1Cl`, the melting point fell in the range of 82 to 84 °C. Then `O=C1CC2CCSc3sccc3C2=NN1c1ccc(Cl)cc1` (stereo not drawn), with 134 to 135 °C; and `Nc1ccc2c(c1)CC(N)CC2` (single isomer, unassigned; (+)), with 33 to 34 °C. As for `CON=Cc1sc(-c2ccc(O)cc2)c(C)c1-c1ccc(O)cc1`, the figure is 219 to 225 °C.

`COc1ccc(S(=O)(=O)Nc2cc(F)cc3c2Nc2ccc(O)cc2CO3)cc1` registered a melting point of 201 to 210 °C. In the case of `Cc1cc(C2=NOC(O)(C(F)(F)F)C2Cl)c(F)cc1Cl` (stereo not drawn), the melting point was 90 to 91 °C.

In the case of `NS(=O)(=O)c1cc2[nH]c(=O)ccc2s1`, the melting point was greater than 300 °C. With `CCOC(=O)c1ccc(CCCOCCCCCCNCC(O)c2cc(Cl)c(N)c(Cl)c2)cc1` (stereo not drawn), the melting point fell in the range of 66 to 68 °C. As for `CN(C)Cc1ccc(CSCCNC(=O)NCCCCN(C)CCN(Cc2ccc(F)cc2)c2ccccn2)o1`, the figure is 74 °C; as for `COc1cc(-c2oc3ccccc3c(=O)c2C(=O)O)cc(OC)c1OC`, 260 to 262 °C; as for `O=C(O)c1ccc(-c2ccc3cc(O)c(C45CC6CC(CC(C6)C4)C5)cc3c2)cc1O`, 261 to 264 °C. Regarding `O=C(O)Cn1cc(C2(O)CCCC2)nn1`, the melting point fell in the range of 124 to 126 °C. As for `O=C1C=C(O)CC(CCC2CCCC2)(C2CCCC2)O1` (stereo not drawn), the figure is 130 to 132 °C; as for `CCc1ccc2c(=O)c(C(N)=O)cn(C)c2c1`, 255 to 256 °C. Then `CCc1cc2c(s1)S(=O)(=O)NC2=O`, with 143 °C. Then `CC(C)CNc1c([N+](=O)[O-])c2nnnn2c2cnccc12`, with 173 to 174 °C; and `COc1ccc(C(CC(=O)Nc2ccc(NC(=O)Nc3ccccc3C)cc2)NC(=O)c2ccc(C(=O)O)cc2)cc1OC` (stereo not drawn), with 166 °C; and `CC(C(=O)NCCN(C)C)n1cc(-c2ccc(Oc3ccccc3)cc2)c2c(N)ncnc21` (stereo not drawn), with 163 to 164 °C. `Cc1cnc2ccnn2c1-c1cccc(C(F)(F)F)c1` had a melting point of 168 to 169 °C. Then `CCc1nc(N)nc(N)c1-c1ccc(NC)c([N+](=O)[O-])c1`, with 262 to 265 °C; and `O=C(O)c1cc(-n2c(-c3ccccc3)cc3c2CCC3)ccc1O`, with 198 to 199 °C. Then `NN=C(c1ccc(F)cc1)c1ccc(F)cc1`, with 78 °C; and `N#Cc1cc(N)c(Cl)c(N)c1`, with 172 °C. Compound `CCN1C(=O)C(C)(C)C(=O)N(C)c2cc(OCCCN(CCc3cccnc3)C(=O)c3ccncc3)ccc21` came in with a melting point of 88.1 to 92.2 °C.

For `Cc1cccc(N2CC(c3cccc(-c4ccc(S(C)(=O)=O)cc4)c3)=CN2)n1`, the melting point was in the range of 95 to 97 °C. As for `CC1(C)OCc2c1nc1ccccc1c2Cl`, the figure is 108 to 110 °C; as for `OCc1c(Cl)nc(C2CCCC2)n1Cc1ccccc1`, 102 to 103 °C.

Turning to `N#CCCCCCC(=NOCCNC(c1ccccc1)(c1ccccc1)c1ccccc1)c1ccc(Cl)c(Cl)c1`, the melting point is 131 to 132 °C. As for `CN1CCc2c(cc3ccccc3c2N)C1`, the figure is 97 to 99 °C; as for `C=CCc1cc(CC(=O)NCCCC)ccc1O`, 48 to 50 °C. Then `Fc1cc2c(Nc3ccc(Br)c(Br)c3)ncnc2cn1`, with 262 to 264 °C. Turning to `C=C(C)Oc1nc(NCCSCc2ccco2)ncc1Cc1ccc(C)nc1`, the melting point was 47 to 48 °C.

The compound `O=C(O)COc1ccc2c(-c3ccccc3F)noc2c1Cl` had a melting point of 188 to 189 °C. Then `CN1C(=O)[C@H](NC(=O)CCc2cccc(C(F)(F)F)c2)N=C(c2ccccc2)c2ccccc21`, with 135 to 136 °C; and `CCOC(=O)Cc1ccc(-c2nc(COc3ccc(COc4nn(-c5ccccc5)cc4C=O)cc3OC)c(C)o2)cc1`, with 157 to 158 °C; and `CCCCN(CCCC)C(=O)c1cc(C(C)(C)C)c(O)c(C(C)(C)C)c1`, with 94 to 95 °C. Then `CNC(=O)N(O)CCNC(=O)c1ccc2ccccc2n1`, with 158 to 159 °C; and `OC1CCCc2nc3ccccc3c(NCc3ccccc3C(F)(F)F)c21` (stereo not drawn), with 158 to 160 °C. `Cc1ccc2c(O)c(-c3cccc(Oc4ccccc4)c3)c(=O)[nH]c2c1` yielded a melting point of 299 to 300 °C. As for `CCOC(=O)C1=C(C)OC(N)=C(C(=O)OCC)C1c1cccc([N+](=O)[O-])c1` (stereo not drawn), the figure is 161 °C; as for `O=C(O)c1ccc(OCC2CC(=O)N(c3ccc(OC4CCCC4O)cc3)C2)cc1` (stereo not drawn), 176 to 178 °C.
